The values that follow come from BindingDB's records for doi:10.1080/14756360400015231 (Quaid-I-Azam University, 2005).

Carboxylic ester hydrolase, sequence (Q9N1N9 whole entry): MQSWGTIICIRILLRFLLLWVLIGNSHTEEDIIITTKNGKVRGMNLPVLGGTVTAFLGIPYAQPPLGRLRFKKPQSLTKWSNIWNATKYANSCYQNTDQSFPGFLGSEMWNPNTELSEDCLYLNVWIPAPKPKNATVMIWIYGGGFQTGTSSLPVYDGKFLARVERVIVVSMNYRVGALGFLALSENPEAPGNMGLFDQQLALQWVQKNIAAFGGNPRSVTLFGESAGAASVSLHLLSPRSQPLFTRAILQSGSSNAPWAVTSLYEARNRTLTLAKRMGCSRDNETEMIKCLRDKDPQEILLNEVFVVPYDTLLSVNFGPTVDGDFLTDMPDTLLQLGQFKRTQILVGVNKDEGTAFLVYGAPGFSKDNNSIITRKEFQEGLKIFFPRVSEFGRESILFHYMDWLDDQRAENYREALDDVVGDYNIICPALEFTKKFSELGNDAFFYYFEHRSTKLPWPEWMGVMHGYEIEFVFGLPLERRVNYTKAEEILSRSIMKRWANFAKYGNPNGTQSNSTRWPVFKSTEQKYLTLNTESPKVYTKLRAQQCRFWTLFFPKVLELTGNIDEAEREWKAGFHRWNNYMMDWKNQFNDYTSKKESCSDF

The target of the experiment is Carboxylic ester hydrolase (Equus caballus, UniProt Q9N1N9). Kind of experiment: Enzyme Inhibition Assay. To be noted: pH 8; 25 °C. The procedure:
In vitro cholinesterase inhibition assay using electric-eel acetylcholinesterase, horse-serum butyrylcholinesterse. The IC50 values were calculated using the […] enzyme kinetics program (Perrella Scientific Inc., Amherst, USA).
For the compound `O=C(/C=C/c1ccccc1O)c1ccccc1` [Chalcone, 1], the IC50 stood at 16 µM.

`COc1ccc(/C=C/C(=O)c2ccccc2)cc1OC` [Chalcone, 5] yielded an IC50 of 23.1 µM.

In the case of `O=C(/C=C/c1cccc(O)c1)c1ccccc1` [Chalcone, 2], the IC50 amounted to 46.2 µM.

`COc1ccc(/C=C/C(=O)c2ccccc2)cc1` [Chalcone, 4] gave an IC50 of 39 µM.

`O=C(/C=C/c1ccccc1)c1ccccc1` [Chalcone, 13] had an IC50 of 109 µM.

`O=C(/C=C/c1ccc(O)cc1)c1ccccc1` [Chalcone 2] registered an IC50 of 40 µM. This IC50 is about 2.7-fold lower than that of the compound before.
